The results in this text go back to patent publication US20250136595A1, “ACYLATED HETEROCYCLIC QUINAZOLINE DERIVATIVES AS INHIBITORS OF ERBB2” (Enliven Inc., priority 2022, published 2025).

One test concerns the target Ba/F3 ERBB2 YVMA (Homo sapiens, UniProt P04626, DUP772-775, cells depend on it). Kind of test: Cell viability assay (CellTiter Glo) in Ba/F3 cells engineered to express ERBB2 YVMA. Format: cell-based, mouse. Particulars: Ba/F3 cells expressing human ERBB2 YVMA mutant, 72 hours, % viability, read-out: Ba/F3 ERBB2 YVMA IC50. The method in brief:
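IL-3-independent mouse Ba/F3 line stably transduced with human ERBB2 YVMA, seeded at 3000 cells/well, exposed to serially diluted compound (≤0.1% DMSO) for 72 h at 37° C. ATP read by CellTiter Glo luminescence, normalised to DMSO and media-only controls; sigmoidal nonlinear regression fit.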

The target of test [1] is T1, phosphorylated ERBB2 (pERBB2) (Homo sapiens, UniProt P04626).
T1 construct: endogenous in cells; host or cells: BT-474
T1 sequence (P04626 23-1255): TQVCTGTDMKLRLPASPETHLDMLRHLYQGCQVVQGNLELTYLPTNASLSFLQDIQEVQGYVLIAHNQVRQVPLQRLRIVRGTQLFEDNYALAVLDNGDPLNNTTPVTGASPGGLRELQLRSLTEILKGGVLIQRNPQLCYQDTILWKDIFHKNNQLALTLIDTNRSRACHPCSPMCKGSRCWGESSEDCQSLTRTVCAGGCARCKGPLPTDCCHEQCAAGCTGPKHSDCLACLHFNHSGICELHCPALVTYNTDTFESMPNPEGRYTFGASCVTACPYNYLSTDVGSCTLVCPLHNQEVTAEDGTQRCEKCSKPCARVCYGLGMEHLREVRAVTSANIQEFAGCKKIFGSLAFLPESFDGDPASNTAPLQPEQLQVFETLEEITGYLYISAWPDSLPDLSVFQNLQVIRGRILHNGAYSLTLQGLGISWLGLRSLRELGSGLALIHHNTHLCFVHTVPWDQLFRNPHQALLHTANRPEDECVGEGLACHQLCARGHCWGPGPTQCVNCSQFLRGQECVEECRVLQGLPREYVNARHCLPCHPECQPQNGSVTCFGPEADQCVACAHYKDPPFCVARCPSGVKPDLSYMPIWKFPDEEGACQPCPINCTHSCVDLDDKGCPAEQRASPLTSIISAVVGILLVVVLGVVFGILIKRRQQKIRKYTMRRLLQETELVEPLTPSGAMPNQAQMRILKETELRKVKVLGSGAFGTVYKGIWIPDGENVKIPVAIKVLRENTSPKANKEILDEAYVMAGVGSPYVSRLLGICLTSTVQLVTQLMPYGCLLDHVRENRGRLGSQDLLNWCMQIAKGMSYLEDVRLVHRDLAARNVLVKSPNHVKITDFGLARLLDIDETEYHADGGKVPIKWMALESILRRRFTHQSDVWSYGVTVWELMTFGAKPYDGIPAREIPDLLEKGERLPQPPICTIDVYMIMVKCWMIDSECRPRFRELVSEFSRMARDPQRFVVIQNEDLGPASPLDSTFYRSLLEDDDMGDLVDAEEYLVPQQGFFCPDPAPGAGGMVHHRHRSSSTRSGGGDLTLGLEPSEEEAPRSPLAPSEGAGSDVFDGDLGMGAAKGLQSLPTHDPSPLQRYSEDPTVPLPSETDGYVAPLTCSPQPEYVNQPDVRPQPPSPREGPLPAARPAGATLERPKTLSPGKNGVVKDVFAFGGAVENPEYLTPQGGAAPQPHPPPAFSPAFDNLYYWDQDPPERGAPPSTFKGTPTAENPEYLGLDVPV
Description: Detection of phosphorylated ERBB2 (pERBB2) by ELISA in BT-474 cells. Particulars: four hour incubation with compound. The format is cell-based. The method in brief: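 BT-474 cells treated 4 h at 37 °C, 5% CO2 with four-fold dilutions (10 μM to 0.01 nM final). Lysates analysed by ELISA for pERBB2, TMB read at OD 450 nm. % relative activity normalised to no-cell (low) and 0.1% DMSO-treated (high) controls.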

In test [2] the target is T2, phosphorylated EGFR (pEGFR) (Homo sapiens, UniProt P00533).
T2 construct: performed to measure phosphorylated EGFR levels using A431 cells; endogenous in cells; host or cells: A431
T2 sequence (P00533 25-1210): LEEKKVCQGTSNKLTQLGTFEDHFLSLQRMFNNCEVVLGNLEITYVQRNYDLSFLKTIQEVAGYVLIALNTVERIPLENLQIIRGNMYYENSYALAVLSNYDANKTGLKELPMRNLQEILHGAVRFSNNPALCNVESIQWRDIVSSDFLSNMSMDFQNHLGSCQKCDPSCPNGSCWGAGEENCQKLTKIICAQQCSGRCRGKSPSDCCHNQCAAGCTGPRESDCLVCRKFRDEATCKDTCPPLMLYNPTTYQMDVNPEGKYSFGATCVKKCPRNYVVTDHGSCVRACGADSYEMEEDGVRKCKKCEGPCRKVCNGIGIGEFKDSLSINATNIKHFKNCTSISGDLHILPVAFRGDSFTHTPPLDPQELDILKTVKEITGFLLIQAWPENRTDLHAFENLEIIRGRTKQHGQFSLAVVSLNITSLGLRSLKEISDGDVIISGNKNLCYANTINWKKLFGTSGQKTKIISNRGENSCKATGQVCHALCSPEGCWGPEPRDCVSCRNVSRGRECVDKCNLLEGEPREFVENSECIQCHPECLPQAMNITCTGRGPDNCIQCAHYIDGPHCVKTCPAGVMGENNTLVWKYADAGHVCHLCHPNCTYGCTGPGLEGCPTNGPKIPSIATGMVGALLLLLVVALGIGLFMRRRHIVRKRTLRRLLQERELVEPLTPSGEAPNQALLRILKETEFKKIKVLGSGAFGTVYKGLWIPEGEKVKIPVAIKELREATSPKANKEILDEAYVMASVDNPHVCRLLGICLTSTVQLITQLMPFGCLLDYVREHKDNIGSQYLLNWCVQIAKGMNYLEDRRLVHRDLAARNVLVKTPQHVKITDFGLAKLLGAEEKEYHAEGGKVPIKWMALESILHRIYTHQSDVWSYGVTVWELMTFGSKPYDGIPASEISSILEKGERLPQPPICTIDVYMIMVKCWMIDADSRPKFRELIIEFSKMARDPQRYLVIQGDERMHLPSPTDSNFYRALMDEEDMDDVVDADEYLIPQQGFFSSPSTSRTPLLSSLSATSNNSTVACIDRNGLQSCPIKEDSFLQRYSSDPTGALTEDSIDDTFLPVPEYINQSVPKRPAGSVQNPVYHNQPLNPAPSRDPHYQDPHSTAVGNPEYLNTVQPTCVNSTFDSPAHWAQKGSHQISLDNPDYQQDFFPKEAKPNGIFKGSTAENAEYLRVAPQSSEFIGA
Description: Detection of phosphorylated EGFR (pEGFR) in EGF-stimulated A431 cells (AlphaLISA). Format: cell-based. Particulars: A431 cells (10% FBS), 4 hours incubation, EGF 30 ng/mL for 10 minutes. Put shortly:
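Cells in 10% FBS treated with compound 4 h at 37° C., then stimulated 10 min with 30 ng/mL EGF, lysed, and pEGFR measured by AlphaLISA. Inhibition normalized to DMSO and staurosporine controls; IC50 from four-parameter logistic fit.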

Some results are limits rather than exact numbers.

Sequence of Ba/F3 ERBB2 YVMA (P04626 with tags, fused parts or gaps DUP772-775): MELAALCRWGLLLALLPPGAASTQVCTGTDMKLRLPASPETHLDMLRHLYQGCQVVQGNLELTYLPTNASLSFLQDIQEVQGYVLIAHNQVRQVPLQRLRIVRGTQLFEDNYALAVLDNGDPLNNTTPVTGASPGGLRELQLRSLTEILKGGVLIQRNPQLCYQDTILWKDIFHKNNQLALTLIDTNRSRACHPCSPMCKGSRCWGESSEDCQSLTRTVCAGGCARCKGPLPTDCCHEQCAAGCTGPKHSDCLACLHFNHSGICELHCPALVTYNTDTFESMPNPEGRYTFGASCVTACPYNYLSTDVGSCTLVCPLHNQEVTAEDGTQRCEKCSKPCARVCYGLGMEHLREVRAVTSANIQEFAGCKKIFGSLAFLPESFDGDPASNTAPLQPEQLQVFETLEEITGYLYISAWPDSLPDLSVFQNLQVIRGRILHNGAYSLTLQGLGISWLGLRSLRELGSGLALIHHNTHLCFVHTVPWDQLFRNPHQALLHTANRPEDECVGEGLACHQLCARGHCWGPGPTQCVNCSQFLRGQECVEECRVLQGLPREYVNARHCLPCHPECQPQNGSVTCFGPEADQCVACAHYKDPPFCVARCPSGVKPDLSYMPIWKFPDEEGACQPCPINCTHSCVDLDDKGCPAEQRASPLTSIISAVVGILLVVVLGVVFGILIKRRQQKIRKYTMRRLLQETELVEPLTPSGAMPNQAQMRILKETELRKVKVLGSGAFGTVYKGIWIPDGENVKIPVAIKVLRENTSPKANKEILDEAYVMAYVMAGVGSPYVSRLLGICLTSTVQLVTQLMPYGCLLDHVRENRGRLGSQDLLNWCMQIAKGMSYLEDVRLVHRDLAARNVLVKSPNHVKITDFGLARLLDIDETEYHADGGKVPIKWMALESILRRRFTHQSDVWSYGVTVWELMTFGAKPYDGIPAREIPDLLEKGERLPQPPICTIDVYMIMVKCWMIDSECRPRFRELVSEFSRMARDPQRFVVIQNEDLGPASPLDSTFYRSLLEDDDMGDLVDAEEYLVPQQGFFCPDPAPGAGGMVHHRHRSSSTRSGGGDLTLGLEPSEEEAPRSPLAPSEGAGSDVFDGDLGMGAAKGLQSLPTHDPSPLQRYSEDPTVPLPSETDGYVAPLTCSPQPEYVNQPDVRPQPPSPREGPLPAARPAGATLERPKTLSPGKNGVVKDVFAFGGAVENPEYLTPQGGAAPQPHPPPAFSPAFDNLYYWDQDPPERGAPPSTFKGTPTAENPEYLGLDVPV

As for `Cc1cc(Nc2ncnc3ccc(N4CCN(C(=O)/C=C/CN(C)C)CC4)nc23)ccc1Cc1ccc2c(c1)ncn2C` [Compound 120, (E)-4-(dimethylamino)-1-(4-(4-((3-methyl-4-((1-methyl-1H-benzo[d]imidazol-5-yl)methyl)phenyl)amino)pyrido[3,2-d]pyrimidin-6-yl)piperazin-1-yl)but-2-en-1-one], the GI50 on Ba/F3 ERBB2 YVMA is 7.1 nM. The IC50 in test [1] amounted to 36.5 nM; in test [2] it was 2080 nM.

Take `Cc1cc(Nc2ncnc3ccc(N4CCN(C(=O)/C=C/CN(C)C)[C@H](C)C4)nc23)ccc1Cc1ccc2c(c1)ncn2C` [Compound 121, (R,E)-4-(dimethylamino)-1-(2-methyl-4-(4-((3-methyl-4-((1-methyl-1H-benzo[d]imidazol-5-yl)methyl)phenyl)amino)pyrido[3,2-d]pyrimidin-6-yl)piperazin-1-yl)but-2-en-1-one]: the GI50 at Ba/F3 ERBB2 YVMA is 9.08 nM. Besides, the IC50 is 55.9 nM in test [1] and 6740 nM in test [2].

In the case of `Cc1cc(Nc2ncnc3cnc(N4CCN(C(=O)/C=C/CN(C)C)[C@H](C)C4)nc23)ccc1Cc1ccn2ncnc2c1` [Compound 122, (R,E)-1-(4-(8-((4-([1,2,4]triazolo[1,5-a]pyridin-7-ylmethyl)-3-methylphenyl)amino)pyrimido[5,4-d]pyrimidin-2-yl)-2-methylpiperazin-1-yl)-4-(dimethylamino)but-2-en-1-one], the GI50 on Ba/F3 ERBB2 YVMA was 32.4 nM. Further, the IC50 in test [1] is 53.2 nM; in test [2] it was above 10000 nM.

Turning to `C=CC(=O)N1C2CCC1CN(c1ccc3ncnc(Nc4ccc(Cc5ccc6c(c5)ncn6C)c(C)c4)c3n1)C2` [Compound 123, 1-(3-(4-((3-methyl-4-((1-methyl-1H-benzo[d]imidazol-5-yl)methyl)phenyl)amino)pyrido[3,2-d]pyrimidin-6-yl)-3,8-diazabicyclo[3.2.1]octan-8-yl)prop-2-en-1-one], the GI50 on Ba/F3 ERBB2 YVMA came to 9.61 nM. Besides, the IC50 worked out at 53 nM in test [1] and 1270 nM in test [2].

Consider `C=CC(=O)N1CCN(c2ccc3ncnc(Nc4ccc(Oc5ccc(CC)nc5)c(C)c4)c3n2)CC1` [Compound 124, 1-(4-(4-((4-((6-ethylpyridin-3-yl)oxy)-3-methylphenyl)amino)pyrido[3,2-d]pyrimidin-6-yl)piperazin-1-yl)prop-2-en-1-one], for which the GI50 at Ba/F3 ERBB2 YVMA was 35.9 nM. In addition, the figures for the IC50 in test [1] and in test [2] were 138 nM and 2580 nM, respectively.

On to `C=CC(=O)N1CCN(c2ccc3ncnc(Nc4ccc(Cc5ccc6c(c5)ncn6C)c(C)c4)c3c2)[C@@H](C)C1` [Compound 125, (S)-1-(3-methyl-4-(4-((3-methyl-4-((1-methyl-1H-benzo[d]imidazol-5-yl)methyl)phenyl)amino)quinazolin-6-yl)piperazin-1-yl)prop-2-en-1-one], for which the GI50 on Ba/F3 ERBB2 YVMA turned out to be 61.2 nM. For the same molecule, the IC50 in test [1] is 95.9 nM; in test [2] it was above 10000 nM.

As to `Cc1cc(Nc2ncnc3ccc(N4CCN(C(=O)/C=C/CN(C)C)C[C@@H]4C)nc23)ccc1Cc1ccc2c(c1)ncn2C` [Compound 126, (S,E)-4-(dimethylamino)-1-(3-methyl-4-(4-((3-methyl-4-((1-methyl-1H-benzo[d]imidazol-5-yl)methyl)phenyl)amino)pyrido[3,2-d]pyrimidin-6-yl)piperazin-1-yl)but-2-en-1-one], the GI50 on Ba/F3 ERBB2 YVMA was 29.6 nM. Also, the values for the IC50 in test [1] and in test [2] were 145 nM and above 10000 nM, respectively.

Turning to `C=CC(=O)N1C2CCC1CN(c1ccc3ncnc(Nc4ccc(Cc5ccn6ncnc6c5)c(C)c4)c3n1)C2` [Compound 127, 1-(3-(4-((4-([1,2,4]triazolo[1,5-a]pyridin-7-ylmethyl)-3-methylphenyl)amino)pyrido[3,2-d]pyrimidin-6-yl)-3,8-diazabicyclo[3.2.1]octan-8-yl)prop-2-en-1-one], the GI50 on Ba/F3 ERBB2 YVMA came out at 4.37 nM. Further, the IC50 came to 17.5 nM in test [1] and 2150 nM in test [2].

Turning to `C=CC(=O)N1CC2CC1CN2c1ccc2ncnc(Nc3ccc(Cc4ccn5ncnc5c4)c(C)c3)c2n1` (stereo not drawn) [Compound 128, 1-(5-(4-((4-([1,2,4]triazolo[1,5-a]pyridin-7-ylmethyl)-3-methylphenyl)amino)pyrido[3,2-d]pyrimidin-6-yl)-2,5-diazabicyclo[2.2.1]heptan-2-yl)prop-2-en-1-one], the GI50 at Ba/F3 ERBB2 YVMA was 7.45 nM. Moreover, the IC50 in test [1] is 19.8 nM; in test [2] it was 530 nM.

Take `C=CC(=O)N1CCN(c2ccc3ncnc(Nc4ccc(Cc5ccn6ncnc6c5)c(C)c4)c3n2)CC12CC2` [Compound 129, 1-(7-{4-[(3-methyl-4-{[1,2,4]triazolo[1,5-a]pyridin-7-ylmethyl}phenyl)amino]pyrido[3,2-d]pyrimidin-6-yl}-4,7-diazaspiro[2.5]octan-4-yl)prop-2-en-1-one]: the GI50 at Ba/F3 ERBB2 YVMA amounted to 5.32 nM. Moreover, the IC50 in test [1] came to 21.5 nM; in test [2], 317 nM.

Take `C=CC(=O)N1CCN(c2ncc3ncnc(Nc4ccc(Oc5ccc6c(c5)ncn6C)c(C)c4)c3n2)CC1` [Compound 130, 1-(4-(8-((3-methyl-4-((1-methyl-1H-benzo[d]imidazol-5-yl)oxy)phenyl)amino)pyrimido[5,4-d]pyrimidin-2-yl)piperazin-1-yl)prop-2-en-1-one]: at Ba/F3 ERBB2 YVMA, the GI50 is 15 nM. The IC50 in test [1] worked out at 13 nM; in test [2] it was 1480 nM.

Regarding `C=CC(=O)N1CCN(c2ccc3ncnc(Nc4ccc(Cc5ccn6ncnc6c5)c(C)c4)c3n2)CC1(C)C` [Compound 131, 1-(4-(4-((4-([1,2,4]triazolo[1,5-a]pyridin-7-ylmethyl)-3-methylphenyl)amino)pyrido[3,2-d]pyrimidin-6-yl)-2,2-dimethylpiperazin-1-yl)prop-2-en-1-one], the GI50 on Ba/F3 ERBB2 YVMA was determined as 20 nM. Also, the IC50 is 30 nM in test [1] and 2390 nM in test [2].
